Measured values published in paper PMC10739246 (ACS Bio & Med Chem Au, 2023).
Values after ≈ are worked out from the molar mass of the structure shown. “Also recorded” adds a separate entry of the source. Read-outs that look alike come from different tables or passages of the source.

How the values were obtained:
E. faecalis (ATCC 19433) = assay: MIC, E. faecalis ATCC 19433; format: cell-based, Enterococcus faecalis
[1] = tested on: norfloxacin-resistant clinical isolate of E. coli; assay: MIC, microdilution, norfloxacin-resistant clinical isolate of E. coli; format: cell-based, Escherichia coli; details: read-out: MIC E. coli (norfloxacin-resistant strain)
E. coli [2] = details: for FICC (fractional inhibitory concentration of the test compound): MICCcheckerboard/MICC; for Outcome: checkerboard with mupirocin; for FICM (MICMcheckerboard/MICM): mupirocin alone 64 µg/mL; for FICI (fractional inhibitory concentration index): with mupirocin, FICC+FICM
[3] = tested on: K. pneumoniae (ATCC 10031); assay: MIC, K. pneumoniae ATCC 10031; format: cell-based, Klebsiella pneumoniae
[4] = tested on: M. tuberculosis (MC26020); assay: microbe, parasite or virus in culture; format: cell-based, Mycobacterium tuberculosis; details: for MIC: Mycobacterium tuberculosis, read-out: MIC M. tuberculosis (MC26020)
E. coli [5] = assay: microbe, parasite or virus in culture; details: Escherichia coli, read-out: MICC (MIC of the test compound alone)
P. aeruginosa (PAO1) = assay: MIC, microdilution, P. aeruginosa PAO1; format: cell-based, Pseudomonas aeruginosa
E. coli (W3110) = assay: MIC, microdilution, E. coli W3110; format: cell-based, Escherichia coli
[6] = tested on: S. aureus (ATCC 43300) MRSA; assay: MIC, microdilution, MRSA ATCC 43300; format: cell-based, Staphylococcus aureus; details: norfloxacin-resistant strain
S. aureus (CCUG1800T) = assay: MIC, microdilution, S. aureus CCUG1800T; format: cell-based, Staphylococcus aureus; details: read-out: MIC S. aureus (CCUG1800T)
MreB in B. subtilis MW10 = assay: MreB mobility assay; format: cell-based, Bacillus subtilis; details: B. subtilis MW10, 1 h of antibiotic exposure
Method: MreB is an actin homologue that forms filamentous structures along the lateral axis of the cell. It moves along the length of the cells in a spiraling pattern thereby driving lateral peptidoglycan synthesis.[36],[37] MreB mobility is sensitive to inhibition of peptidoglycan synthesis and so far, every cell wall synthesis inhibitor we tested abolished MreB movement (see Figure S70 for examples).
Expression of msfGFP-MreB was induced with 0.3% xylose. Pictures were taken after 1 h of antibiotic exposure. Two images of the same field of view were recorded 30 s apart and overlaid in ImageJ to visualize MreB mobility. A perfect overlap (yellow) indicates stalled MreB movement, while distinct red and green foci are indicative of MreB mobility. Scale bar 2 μm.
Fig. S70: MreB motility in B. subtilis MW10 after treatment with different cell wall synthesis inhibitors. Expression of GFP-MreB was induced with 0.3% xylose. Cells were treated with 1x […]
Two images of the same field of view were recorded 30 sec apart and overlaid in ImageJ to visualize MreB mobility. A perfect overlap (yellow) indicates stalled MreB movement while distinct red and green spots are indicative of MreB mobility. Scale bar 2 µm.

B. subtilis DSM402 [7] = assay: Bacterial cytological profiling (BCP) in B. subtilis DSM402; format: cell-based, Bacillus subtilis; details: for DAPI / phase contrast / FM4-64: 1x MIC, 1 h; for DAPI: DNA condensation; for phase contrast: indicates cell lysis; for FM4-64: membrane stain; for gyrase inhibition / membrane damage: interpretation of BCP in B. subtilis
[8] = tested on: MurG in B. subtilis TNVS175; assay: MurG localization; format: cell-based, Bacillus subtilis; details: for protein localization MurG: 1x MIC, 30 min (vancomycin) or 1 h;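 as to protein localization MurG: normal MurG forms small membrane spots and peptidoglycan inhibition gives large clusters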
E. coli W3110 = assay: Bacterial cytological profiling (BCP) in E. coli W3110; format: cell-based, Escherichia coli; details: for DAPI / phase contrast / FM4-64: 1x MIC, 1 h; for DAPI: DNA condensation; for phase contrast: indicates cell lysis; for FM4-64: membrane stain; for gyrase inhibition / membrane damage: interpretation of BCP in E. coli
B. subtilis DSM402 [9] = details: for μM (concentration used, 1x MIC): Table 2, cells treated with 1x MIC
B. subtilis DSM402 [10] = assay: Peptidoglycan integrity assay (acetic acid/methanol fixation); details: 1x MIC; 30 min (cell wall inhibitors) or 60 min
[11] = tested on: MraY in B. subtilis TNVS284; assay: MraY localization; details: 1x MIC, 30 min (vancomycin) or 1 h
[12] = tested on: PonA in B. subtilis TNVS45; assay: PonA localization; details: 1x MIC, 30 min (vancomycin) or 1 h
[13] = tested on: cell wall biosynthesis in B. subtilis DSM402; assay: Summary of cell wall synthesis experiments; format: cell-based, Bacillus subtilis
E. coli BCB472 = assay: GlpT localization (inner membrane) in E. coli BCB472; details: 1x MIC, 1 h; GFP-tagged membrane protein
[14] = tested on: PbpB in B. subtilis EKB46; assay: PbpB localization; details: 1x MIC, 30 min (vancomycin) or 1 h
B. subtilis DSM402 [15] = assay: microbe, parasite or virus in culture; details: Bacillus subtilis, DSM402, read-out: concentration (MIC against B. subtilis DSM402)
E. coli DNA gyrase = target: T1, E. coli DNA gyrase (Escherichia coli, UniProt P0AES4+P0AES6); assay: In vitro DNA gyrase cleavage assay; format: biochemical
T1 construct: purchased Inspiralis
T1 sequence (P0AES4 whole entry, one chain of several): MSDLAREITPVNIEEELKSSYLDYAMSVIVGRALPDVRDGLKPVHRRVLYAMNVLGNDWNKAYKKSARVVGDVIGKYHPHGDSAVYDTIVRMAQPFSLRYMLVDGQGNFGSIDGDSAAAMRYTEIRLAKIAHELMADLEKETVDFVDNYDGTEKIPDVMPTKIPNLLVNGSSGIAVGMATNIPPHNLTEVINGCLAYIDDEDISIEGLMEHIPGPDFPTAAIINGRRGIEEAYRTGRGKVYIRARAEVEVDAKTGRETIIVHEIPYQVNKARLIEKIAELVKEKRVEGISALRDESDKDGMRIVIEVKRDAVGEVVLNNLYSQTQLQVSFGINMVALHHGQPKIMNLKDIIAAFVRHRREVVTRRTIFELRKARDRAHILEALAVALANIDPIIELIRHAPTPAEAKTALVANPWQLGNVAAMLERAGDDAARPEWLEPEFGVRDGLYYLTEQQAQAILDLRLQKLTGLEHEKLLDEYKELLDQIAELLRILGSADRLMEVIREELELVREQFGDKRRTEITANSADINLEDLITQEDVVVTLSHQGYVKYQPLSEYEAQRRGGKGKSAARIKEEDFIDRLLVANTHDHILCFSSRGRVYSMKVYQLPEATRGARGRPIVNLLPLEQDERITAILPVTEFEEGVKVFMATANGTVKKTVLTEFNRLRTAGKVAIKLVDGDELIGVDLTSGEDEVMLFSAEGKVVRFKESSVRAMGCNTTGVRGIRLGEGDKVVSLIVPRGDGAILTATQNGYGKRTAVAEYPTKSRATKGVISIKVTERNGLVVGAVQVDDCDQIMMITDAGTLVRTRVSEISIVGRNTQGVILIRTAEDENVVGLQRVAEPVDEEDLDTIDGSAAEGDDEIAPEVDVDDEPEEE

in vitro = details: human
[16] = Enterococcus faecalis, ATCC19433
[17] = Klebsiella pneumoniae, ATCC10031
[18] = Escherichia coli, Gram-negative strain, average of duplicate experiments, read-out: MIC E. coli (W3110)

SMILES	MIC (E. faecalis (ATCC 19433); [16]) [µM]	Outcome (E. coli [2])	FICM (MICMcheckerboard/MICM) (E. coli [2])	MIC [3, 17] [µM]	MIC [4] [µM]	MIC (E. coli [5]) [µg/mL]	MIC (P. aeruginosa (PAO1); Pseudomonas aeruginosa, PAO1) [µM]	MIC (E. coli (W3110); [18]) [µM]	MIC ([6]; Staphylococcus aureus) [µM]	MIC (S. aureus (CCUG1800T); Staphylococcus aureus) [µM]	MreB mobility (MreB in B. subtilis MW10)	DAPI (B. subtilis DSM402 [7])	phase contrast (B. subtilis DSM402 [7])	FM4-64 (B. subtilis DSM402 [7])	gyrase inhibition (B. subtilis DSM402 [7])	PG integrity (B. subtilis DSM402 [10])	protein localization MraY [11]	protein localization PonA [12]	CWB inhibited? [13]	protein localization PbpB [14]	further results
CCn1cc(C(=O)O)c(=O)c2cc(F)c(N3CCN(C(=O)CN4CCCCC4)CC3)cc21 [7a]	4.49 (≈ 2 µg/mL)	additive (>0.5 to ≤4.0 as additive (no interaction))	0.75	144 (≈ 64 µg/mL)	72 (≈ 32 µg/mL)	16	> 1150	36 (≈ 16 µg/mL)	576 (≈ 256 µg/mL)	8.99 (≈ 4 µg/mL)											MIC ([1]; Escherichia coli): > 1150 µM; FICC (fractional inhibitory concentration of the test compound) (E. coli [2]): 0.252; FICI (fractional inhibitory concentration index) (E. coli [2]): 1.002
CCn1cc(C(=O)O)c(=O)c2cc(F)c(N3CCN(C(=O)CN4CCOCC4)CC3)cc21 [7b]	8.95 (≈ 4 µg/mL)	additive (>0.5 to ≤4.0 as additive (no interaction))	0.0313	> 1150	1.67 (≈ 0.746 µg/mL)	32	860 (≈ 384 µg/mL)	71.7 (≈ 32 µg/mL)	287 (≈ 128 µg/mL)	4.47 (≈ 2 µg/mL)											MIC ([1]; Escherichia coli): 143 µM (≈ 64 µg/mL); FICC (fractional inhibitory concentration of the test compound) (E. coli [2]): 0.5; FICI (fractional inhibitory concentration index) (E. coli [2]): 0.5313
CCn1cc(C(=O)O)c(=O)c2cc(F)c(N3CCN(CN4C(=O)C(=O)c5cc(F)ccc54)CC3)cc21 [20a]											much smaller clusters and more clusters per cell; also recorded: mobile with static foci	condensed	dark	patchy	yes	came close to the cutoff value; also recorded: intact	neither compound affected the localization; also recorded: rough	neither compound affected the localization; also recorded: septal	yes ^b	neither compound affected the localization; also recorded: smooth	MIC (E. faecalis (ATCC 19433)): 3.02 µM (≈ 1.5 µg/mL); membrane damage (B. subtilis DSM402 [7]): yes; MIC ([1]; norfloxacin-resistant clinical isolate): 16.11 µM (≈ 8 µg/mL); protein localization MurG [8]: distinct MurG clusters all over the cells; also recorded: patchy; DAPI (E. coli W3110): condensed; phase contrast (E. coli W3110): dark; FM4-64 (E. coli W3110): smooth; gyrase inhibition (E. coli W3110): yes; membrane damage (E. coli W3110): no; MIC [3]: 8.05 µM (≈ 4 µg/mL); concentration (MIC against B. subtilis DSM402) (B. subtilis DSM402 [9]; Tab. S13, concentrations represent MIC values): 16.11 µM; μM (concentration used, 1x MIC) (B. subtilis DSM402 [9]): 16.11 µM; MIC M. tuberculosis (MC26020) [4]: 64.45 µM (≈ 32 µg/mL); MIC (P. aeruginosa (PAO1)): 17.12 µM (≈ 8.5 µg/mL); MIC (E. coli (W3110); Gram-negative strain, average of duplicate experiments, read-out: MIC E. coli (W3110)): 3.02 µM (≈ 1.5 µg/mL); concentration (MIC against E. coli W3110) (E. coli (W3110); Tab. S11, concentrations represent MIC values): 3.02 µM; MIC [6]: >1031.3 µM; GlpT (E. coli BCB472): smooth; MIC (S. aureus (CCUG1800T)): 8.05 µM (≈ 4 µg/mL)
O=C(O)c1cn(C2CC2)c2cc(N3CCNCC3)c(F)cc2c1=O [Cip, ciprofloxacin, reference compound]	6.03 (≈ 2 µg/mL)			7.54 (≈ 2.5 µg/mL)	2.26 (≈ 0.749 µg/mL)				96.6 (≈ 32 µg/mL)	3.01 (≈ 0.997 µg/mL)	mobile	condensed	dark	few patches	yes	intact	rough	septal	no	smooth	MreB mobility (MreB in B. subtilis MW10; listed as ciprofloxacin): did not affect either MreB mobility or localization; membrane damage (B. subtilis DSM402 [7]): possibly; DAPI (E. coli W3110): condensed; phase contrast (E. coli W3110): dark; FM4-64 (E. coli W3110): smooth; gyrase inhibition (E. coli W3110): yes; membrane damage (E. coli W3110): no; MIC (B. subtilis DSM402 [15]): 3.01 µM (≈ 0.997 µg/mL); GlpT (E. coli BCB472): smooth
CCn1cc(C(=O)O)c(=O)c2cc(F)c(N3CCNCC3)cc21 [Nor, norfloxacin, reference compound]	4.69 (≈ 1.5 µg/mL)	additive (>0.5 to ≤4.0 as additive (no interaction))	0.5	9.39 (≈ 3 µg/mL)	1.56 (≈ 0.498 µg/mL)	0.125	6.26 (≈ 2 µg/mL)	0.39 (≈ 0.125 µg/mL)	100 (≈ 32 µg/mL)	3.13 (≈ 1 µg/mL)	mobile with static foci	condensed	dark	few patches	yes	intact	rough	septal/patchy	no	smooth	inhibition at 10 µM (E. coli DNA gyrase): 73.6%; MreB mobility (MreB in B. subtilis MW10; listed as norfloxacin): the same effect was observed; membrane damage (B. subtilis DSM402 [7]): possibly; MIC ([1]; Escherichia coli, norfloxacin-resistant clinical isolate): 50.1 µM (≈ 16 µg/mL); protein localization MurG [8]: smooth/spotty; protein localization MurG ([8]; listed as norfloxacin): mostly smooth phenotype; larger MurG clusters ([8]; quantification of microscopy images): up to 30%; DAPI (E. coli W3110): condensed; phase contrast (E. coli W3110): dark; FM4-64 (E. coli W3110): smooth; gyrase inhibition (E. coli W3110): yes; membrane damage (E. coli W3110): no; IC50 at 24 h (in vitro): 48.2 ± 3.92 µM; μM (concentration used, 1x MIC) (B. subtilis DSM402 [9]): 18.11 µM; protein localization MraY ([11]; listed as norfloxacin): no effect on the other two proteins; MIC (B. subtilis DSM402 [15]): 18.1 µM (≈ 5.78 µg/mL); MIC (E. coli (W3110); Escherichia coli, read-out: concentration (MIC against E. coli W3110)): 0.37 µM (≈ 0.118 µg/mL); protein localization PonA ([12]; listed as norfloxacin): accumulation in distinct foci at the cell membrane; GlpT (E. coli BCB472): smooth; protein localization PbpB ([14]; listed as norfloxacin): no effect on the other two proteins
CN[C@H](CC(C)C)C(=O)N[C@H]1C(=O)N[C@@H](CC(N)=O)C(=O)N[C@H]2C(=O)N[C@H]3C(=O)N[C@H](C(=O)N[C@H](C(=O)O)c4cc(O)cc(O)c4-c4cc3ccc4O)[C@H](O)c3ccc(c(Cl)c3)Oc3cc2cc(c3O[C@@H]2O[C@H](CO)[C@@H](O)[C@H](O)[C@H]2O[C@H]2C[C@](C)(N)[C@H](O)[C@H](C)O2)Oc2ccc(cc2Cl)[C@H]1O [Van, vancomycin, reference compound]											static with foci					compromised	rough	septal	yes	smooth	protein localization MurG [8]: patchy/dispersed; μM (concentration used, 1x MIC) (B. subtilis DSM402 [9]): 0.68 µM
